Reference: US4201725A, “Secondary amines” (priority 1974, dated 1980)

What was measured:
[1] = test system: neuroleptic-induced catatonia; assay: Inhibition of neuroleptic (prochlorperazine)-induced catatonia (preventive); assay type: in vivo, rat (male, OFA strain); conditions: for activity relative to amantadine, neuroleptic-induced catatonia: times more active than amantadine
Protocol: The blocking of dopaminergic receptors by neuroleptics in the extra-pyramidal system induces catatonia in the rat. Catatonia is differentiated from sedative properties by means of the test used hereabove for reserpine-induced catatonia. The same system of scoring was also employed in the present case.
An oral dose of the compound to be studied in aqueous solution was administered to batches of 10 male rats of the OFA strain weighing about 150 to 200 g.
Three hours after the injection of this latter compound, catatonia was measured. An identical trial was also carried out with control animals which received prochlorperazine but none of the compounds under study.
The scoring system used was that given hereabove for Table I.

[2] = in vivo; conditions: mouse, po
[3] = test system: reserpine-induced catatonia; assay: Inhibition of reserpine-induced catatonia (preventive, oral compound 30 min before reserpine); assay type: in vivo, rat (male, OFA strain)
Protocol: After sufficient doses of reserpine have been administered to the rat, a series of symptoms occur, more particularly ptosis, catatonia and a drop in central temperature. These symptoms are caused by the depletion of the intragranular reserve pool of biogenetic amines at the synaptic terminals.
An oral dose of the compound to be studied in aqueous solution was administered to batches of 10 male rats of the OFA strain weighing about 150 to 200 g. Thirty minutes later a dose of 5 mg/kg of reserpine was given by intraperitoneal route. Three hours after the injection of reserpine, the animals were suspended by the four paws to a horizontally stretched wire fixed at 15 cm from the ground. The catatonia animals were those which maintained the position so given for at least 30 seconds. […] The maximum score was therefore 10 per batch. An identical trial was undertaken with control animals which received reserpine but none of the compounds being studied.

CCCC(N)(CC)CCC [Compound 2, 1-Ethyl-1-n-propyl-n-butylamine]
Inhibition of the neuroleptic-induced catatonia ([1]; 5 mg/kg oral): 1 (represents 20 to 30% inhibition of catatonia in comparison with the controls) | selectivity ratio [2]: 30

CCCC(N)(CC)CC(C)C (centres unmarked) [Compound 3, 1-Ethyl-1-isobutyl-n-butylamine]
Inhibition of the neuroleptic-induced catatonia ([1]; 20 mg/kg oral): 3 (represents 70 to 80% inhibition of catatonia in comparison with the controls)

CCCC(N)(CCC)CC(C)C [Compound 5, 1-n-Propyl-1-isobutyl-n-butylamine]
Inhibition of reserpine-induced catatonia ([3]; 20 mg/kg oral): 2 (represents 50% inhibition of catatonia in comparison with the controls) | activity relative to amantadine, neuroleptic-induced catatonia [1]: five times more active

CCCC(C)(N)CC(C)CC (centres unmarked) [Compound 6, 1,3-Dimethyl-1-n-propyl-n-pentylamine]
selectivity ratio [2]: > 25

CCCCC(C)(N)CC(C)C (centres unmarked) [Compound 8, 1-Methyl-1-isobutyl-n-pentylamine]
activity relative to amantadine, neuroleptic-induced catatonia [1]: twice as active

CCCCCC(C)(N)CCC (centres unmarked) [Compound 9, 1-Methyl-1-n-propyl-n-hexylamine]
selectivity ratio [2]: 87

CCCCC(C)CC(C)(C)N (centres unmarked) [Compound 13, 1,1,3-Trimethyl-n-heptylamine]
Inhibition of reserpine-induced catatonia ([3]; 25 mg/kg oral): 1 (represents 20 to 30% inhibition of catatonia in comparison with the controls) | Inhibition of the neuroleptic-induced catatonia ([1]; 50 mg/kg oral): 1 (represents 20 to 30% inhibition of catatonia in comparison with the controls)

CCCC(N)(CCC)CC(C)C [Compound 19, 1-n-Propyl-1-isobutyl-n-butylamine]
Inhibition of reserpine-induced catatonia ([3]; 6 mg/kg oral): 3 (represents 70 to 80% inhibition of catatonia in comparison with the controls) | Inhibition of the neuroleptic-induced catatonia ([1]; 6 mg/kg oral): 3 (represents 70 to 80% inhibition of catatonia in comparison with the controls)

CCCC(CCC)(CCC)N(C)C [Compound 28, N,N-Dimethyl-1,1-di-n-propyl-n-butylamine]
Inhibition of reserpine-induced catatonia ([3]; 6 mg/kg oral): 4 (represents 100% inhibition of catatonia in comparison with the controls) | Inhibition of the neuroleptic-induced catatonia ([1]; 3 mg/kg oral): 2 (represents 50% inhibition of catatonia in comparison with the controls) | Inhibition of the neuroleptic-induced catatonia ([1]; 6 mg/kg oral): 4 (represents 100% inhibition of catatonia in comparison with the controls)

CCCC(CCC)(CCC)N1CCC1 [Compound 29, N,N-Trimethylene-1,1-di-n-propyl-n-butylamine]
Inhibition of reserpine-induced catatonia ([3]; 3 mg/kg oral): 3 (represents 70 to 80% inhibition of catatonia in comparison with the controls) | Inhibition of reserpine-induced catatonia ([3]; 6 mg/kg oral): 4 (represents 100% inhibition of catatonia in comparison with the controls) | Inhibition of the neuroleptic-induced catatonia ([1]; 3 mg/kg oral): 2 (represents 50% inhibition of catatonia in comparison with the controls) | Inhibition of the neuroleptic-induced catatonia ([1]; 6 mg/kg oral): 4 (represents 100% inhibition of catatonia in comparison with the controls) | selectivity ratio [2]: 10.8

CCCC(CCC)(CC(C)C)NC [Compound 31, N-Methyl-1-n-propyl-1-isobutyl-n-butylamine]
Inhibition of reserpine-induced catatonia ([3]; 6.5 mg/kg oral): 3 (represents 70 to 80% inhibition of catatonia in comparison with the controls) | Inhibition of the neuroleptic-induced catatonia ([1]; 6.5 mg/kg oral): 4 (represents 100% inhibition of catatonia in comparison with the controls)

CCCC(CCC)(CCC)NCC [Compound 33, N-Ethyl-1,1-di-n-propyl-n-butylamine]
Inhibition of reserpine-induced catatonia ([3]; 6 mg/kg oral): 2 (represents 50% inhibition of catatonia in comparison with the controls) | Inhibition of the neuroleptic-induced catatonia ([1]; 6 mg/kg oral): 4 (represents 100% inhibition of catatonia in comparison with the controls) | selectivity ratio [2]: 16.5

CCCC(CCC)(CCC)NC(C)C [Compound 34, N-Isopropyl-1,1-di-n-propyl-n-butylamine]
Inhibition of reserpine-induced catatonia ([3]; 6.5 mg/kg oral): 2 (represents 50% inhibition of catatonia in comparison with the controls) | Inhibition of reserpine-induced catatonia ([3]; 13 mg/kg oral): 4 (represents 100% inhibition of catatonia in comparison with the controls) | Inhibition of the neuroleptic-induced catatonia ([1]; 3 mg/kg oral): 2 (represents 50% inhibition of catatonia in comparison with the controls) | Inhibition of the neuroleptic-induced catatonia ([1]; 6.5 mg/kg oral): 4 (represents 100% inhibition of catatonia in comparison with the controls) | selectivity ratio [2]: 21.6

C=CCNC(CCC)(CCC)CCC [Compound 35, N-Allyl-1,1-di-n-propyl-n-butylamine]
Inhibition of reserpine-induced catatonia ([3]; 6 mg/kg oral): 2 (represents 50% inhibition of catatonia in comparison with the controls) | Inhibition of the neuroleptic-induced catatonia ([1]; 6 mg/kg oral): 4 (represents 100% inhibition of catatonia in comparison with the controls) | selectivity ratio [2]: 21

CCCC(CCC)(CC(C)C)N(C)C [Compound 37, N,N-Dimethyl-1-n-propyl-1-isobutyl-n-butylamine]
Inhibition of reserpine-induced catatonia ([3]; 6.5 mg/kg oral): 3 (represents 70 to 80% inhibition of catatonia in comparison with the controls) | Inhibition of the neuroleptic-induced catatonia ([1]; 6.5 mg/kg oral): 2 (represents 50% inhibition of catatonia in comparison with the controls)

CCCC(CCC)(CCC)N(C)CC [Compound 38, N-Methyl-N-ethyl-1,1-di-n-propyl-n-butylamine]
Inhibition of reserpine-induced catatonia ([3]; 6.5 mg/kg oral): 2 (represents 50% inhibition of catatonia in comparison with the controls) | Inhibition of the neuroleptic-induced catatonia ([1]; 6.5 mg/kg oral): 2 (represents 50% inhibition of catatonia in comparison with the controls)

C#CCN(CC#C)C(CCC)(CCC)CCC [Compound 39, N,N-Dipropargyl-1,1-di-n-propyl-n-butylamine]
Inhibition of reserpine-induced catatonia ([3]; 15 mg/kg oral): 2 (represents 50% inhibition of catatonia in comparison with the controls)

CCCC(CCC)(CCC)N1CC1 [Compound 40, N,N-Ethylene-1,1-di-n-propyl-n-butylamine]
Inhibition of reserpine-induced catatonia ([3]; 6 mg/kg oral): 2 (represents 50% inhibition of catatonia in comparison with the controls) | Inhibition of the neuroleptic-induced catatonia ([1]; 6 mg/kg oral): 1 (represents 20 to 30% inhibition of catatonia in comparison with the controls) | Inhibition of the neuroleptic-induced catatonia ([1]; 12 mg/kg oral): 3 (represents 70 to 80% inhibition of catatonia in comparison with the controls) | selectivity ratio [2]: > 25

C=NC(CCC)(CCC)CCC [Compound 41, N-Methylene-1,1-di-n-propyl-n-butylamine]
Inhibition of reserpine-induced catatonia ([3]; 5.5 mg/kg oral): 4 (represents 100% inhibition of catatonia in comparison with the controls) | Inhibition of the neuroleptic-induced catatonia ([1]; 5.5 mg/kg oral): 3 (represents 70 to 80% inhibition of catatonia in comparison with the controls) | selectivity ratio [2]: 27

CC=NC(CCC)(CCC)CCC [Compound 42, N-Ethylidene-1,1-di-n-propyl-n-butylamine]
Inhibition of reserpine-induced catatonia ([3]; 6 mg/kg oral): 4 (represents 100% inhibition of catatonia in comparison with the controls) | Inhibition of the neuroleptic-induced catatonia ([1]; 6 mg/kg oral): 2 (represents 50% inhibition of catatonia in comparison with the controls) | selectivity ratio [2]: 20

CCCC(CCC)(CCC)N(CCO)CCO [Compound 44, N,N-bis-(2-Hydroxyethyl)-1,1-di-n-propyl-n-butylamine]
Inhibition of reserpine-induced catatonia ([3]; 15 mg/kg oral): 1 (represents 20 to 30% inhibition of catatonia in comparison with the controls) | Inhibition of the neuroleptic-induced catatonia ([1]; 15 mg/kg oral): 1 (represents 20 to 30% inhibition of catatonia in comparison with the controls)

CCCC(CCC)(CCC)NCCCO [Compound 45, N-(3-Hydroxy-n-propyl)-1,1-di-n-propyl-n-butylamine]
Inhibition of reserpine-induced catatonia ([3]; 14 mg/kg oral): 2 (represents 50% inhibition of catatonia in comparison with the controls) | Inhibition of the neuroleptic-induced catatonia ([1]; 7 mg/kg oral): 2 (represents 50% inhibition of catatonia in comparison with the controls)

CCCNC(CCC)(CCC)CCC [Compound 47, N-n-propyl-1,1-di-n-propyl-n-butylamine]
Inhibition of the neuroleptic-induced catatonia ([1]; 6.5 mg/kg oral): 2 (represents 50% inhibition of catatonia in comparison with the controls)
